Measurements published in US12714736B2, “Methods for preventing an immunoglobulin e-related disease” (MY-OR DIAGNOSTICS LTD., priority 2019, dated 2026).

Tested on: Staphylococcus epidermidis
Test: Anti/pro microbial study: Staphylococcus epidermidis cultured on a plate comprising acemannan
Assay type: cell-based
Conditions: culture plate, Acemannan 0.2% (w/w) vs control (double-distilled water), FIG. 1
Method: FIG. 1 includes a micrograph of culture plate of Staphylococcus epidermidis. The bacteria were cultured on the plate in presence of either Acemannan (0.2% (w/w)) or control (double-distilled water).
The inventors examined the activity of a composition comprising acemannan. The inventors performed an anti/pro microbial study, by culturing Staphylococcus epidermidis on a plate comprising acemannan. S. epidermidis is a skin resident who is known to play an important role in immune training and pathogen resistance. […] This supports the inventors' notion that the herein disclosed cream supports healthy colonization of the skin microbiome.

Acemannan
growth of S. epidermidis: Comparable levels of bacterial growth
growth of S. epidermidis (listed as acemannan): did not affect the growth of S. epidermidis
